Values joined by “and” are separate entries in the source; they are usually repeats but may differ in a detail not shown here. Equal values may be shown once.
Experiments:
[1] = Stabilizing effect of accelerated stabilizers (37° C., 14 days) on plasma samples then accelerated at 30° C. for 1.5 days; format: physicochemical, human; details: for Relative deviation %: Accelerate vs Control; for concentration in plasma samples, Control / concentration in plasma samples, Accelerate: single replicates; for concentration in plasma samples, Accelerate: stabilizer accelerated 37° C. 14 days, plasma then accelerated at 30° C. for 1.5 days
Experimental: (§1) In the present example, the stabilizing effect of the stabilizers on plasma samples, standard products and quality control products after acceleration was further verified. The stabilizers were accelerated at 37° C. for 14 days (equivalent to 1 year at 2-8° C.), added into the plasma samples in proportions and then accelerated at 30° C. for 1.5 days (equivalent to 12 months at −30° C. to −15° C.). The stabilizers were accelerated at 37° C. for 14 days (equivalent to 1 year at 2-8° C.), added into the standard products and the quality control products in proportions and then accelerated at 30° C. for 2 days (equivalent to 18 months at −30° C. to −15° C.).

[2] = Stabilizing effect of accelerated stabilizers (37° C., 14 days) on standard products and quality control products then accelerated at 30° C. for 2 days; format: physicochemical; details: for Relative deviation %: 2 days at 30° C. vs Control; for concentration in standard products and quality control products, 2 days at 30° C. / concentration in standard products and quality control products, Control: single replicates
Experimental: Standard products of epinephrine, norepinephrine, dopamine, metanephrine, normetanephrine and 3-methoxytyramine were prepared into mixed solutions, and blank plasma containing a stabilizer was used as a matrix to prepare standard products and quality control products.
as §1

[3] = samples at a high concentration level
[4] = samples at a low concentration level

SMILES | Relative deviation % [1, 3] [%] | concentration in plasma samples, Control [1, 3] | concentration in plasma samples, Accelerate [1, 3] | Relative deviation % [1, 4] [%] | concentration in plasma samples, Control [1, 4] | concentration in plasma samples, Accelerate [1, 4] | Relative deviation % ([2]; High concentration level) [%] | average concentration, 2 days at 30° C. ([2]; High concentration level) [pg/mL] | concentration in standard products and quality control products, 2 days at 30° C. ([2]; High concentration level) | average concentration, Control ([2]; High concentration level) [pg/mL] | concentration in standard products and quality control products, Control ([2]; High concentration level) | Relative deviation % ([2]; Low concentration level) [%] | average concentration, 2 days at 30° C. ([2]; Low concentration level) [pg/mL] | concentration in standard products and quality control products, 2 days at 30° C. ([2]; Low concentration level) | average concentration, Control ([2]; Low concentration level) [pg/mL] | concentration in standard products and quality control products, Control ([2]; Low concentration level) | Relative deviation % ([2]; Medium concentration level) [%] | average concentration, 2 days at 30° C. ([2]; Medium concentration level) [pg/mL] | concentration in standard products and quality control products, 2 days at 30° C. ([2]; Medium concentration level) | average concentration, Control ([2]; Medium concentration level) [pg/mL] | further results
CNCC(O)c1ccc(O)c(OC)c1 (stereo not drawn) [MN] | −1.2 | 0.41672 ng/mL and 0.40668 ng/mL and 0.40997 ng/mL | 0.39738 ng/mL and 0.41965 ng/mL and 0.40205 ng/mL | 1.9 | 0.07592 ng/mL and 0.07977 ng/mL and 0.07321 ng/mL | 0.0778 ng/mL and 0.07674 ng/mL and 0.07872 ng/mL | 0.61 | 984.35 | 1.00342 ng/mL and 0.93428 ng/mL and 1.01536 ng/mL | 978.42 | 1.00662 ng/mL and 0.97242 ng/mL and 0.9562 ng/mL | 2.69 | 12.16 | 0.01233 ng/mL and 0.01302 ng/mL and 0.01113 ng/mL | 11.84 | 0.01265 ng/mL and 0.01291 ng/mL and 0.00997 ng/mL | −1.18 | 198.93 | 0.20299 ng/mL and 0.20812 ng/mL and 0.18568 ng/mL | 201.31 | concentration in standard products and quality control products, Control ([2]; Medium concentration level): 0.21281 ng/mL and 0.1969 ng/mL and 0.19422 ng/mL
NC[C@H](O)c1ccc(O)c(O)c1 [NE] | −7.1 | 1.73055 ng/mL and 1.84024 ng/mL and 1.88485 ng/mL | 1.79476 ng/mL and 1.56875 ng/mL and 1.70297 ng/mL | −2.5 | 0.27092 ng/mL and 0.2617 ng/mL and 0.26601 ng/mL | 0.26432 ng/mL and 0.25764 ng/mL and 0.25636 ng/mL | 0.32 | 4998.13 | 4.88469 ng/mL and 4.96531 ng/mL and 5.14439 ng/mL | 4982.23 | 4.87738 ng/mL and 5.14511 ng/mL and 4.9242 ng/mL | −8.19 | 55.15 | 0.05733 ng/mL and 0.05299 ng/mL and 0.05514 ng/mL | 60.07 | 0.06429 ng/mL and 0.06019 ng/mL and 0.05575 ng/mL | 1.77 | 994.89 | 0.98928 ng/mL and 1.01881 ng/mL and 0.97658 ng/mL | 977.62 | concentration in standard products and quality control products, Control ([2]; Medium concentration level): 0.97173 ng/mL and 0.97142 ng/mL and 0.98969 ng/mL
COc1cc(C(O)CN)ccc1O (stereo not drawn) [NMN] | 2.1 | 0.97087 ng/mL and 0.85456 ng/mL and 0.85498 ng/mL | 0.91096 ng/mL and 0.88464 ng/mL and 0.94153 ng/mL | 1.7 | 0.17577 ng/mL and 0.16472 ng/mL and 0.17242 ng/mL | 0.17659 ng/mL and 0.17047 ng/mL and 0.17436 ng/mL | −3.68 | 1910.2 | 1.89388 ng/mL and 1.85479 ng/mL and 1.98193 ng/mL | 1983.21 | 2.00785 ng/mL and 1.95209 ng/mL and 1.98969 ng/mL | 1.41 | 24.2 | 0.02503 ng/mL and 0.02506 ng/mL and 0.0225 ng/mL | 23.86 | 0.02255 ng/mL and 0.02588 ng/mL and 0.02315 ng/mL | 1.5 | 405.18 | 0.39387 ng/mL and 0.42435 ng/mL and 0.39731 ng/mL | 399.18 | concentration in standard products and quality control products, Control ([2]; Medium concentration level): 0.39333 ng/mL and 0.41828 ng/mL and 0.38593 ng/mL
